According to patent US10662218B2, “Analogs of celastrol” (ERX Pharmaceuticals, Inc., priority 2015, dated 2020):
≈ marks a conversion by molar mass, not a printed value. Where “and” joins values, the source holds several entries; their conditions need not be identical. Equal entries are not always repeated. Where two headings read alike, the source gives them in different places.

Tests used:
[1] = physchem; conditions: pH 7.4, aqueous buffer, kinetic from dmso stock; for solubility at 1 h: PBS (pH 7.4)
Description: • Test concentration: 100 μM (1% of DMSO) • Test systems: PBS (pH 7.4) • Incubation condition: shaken (1000 rpm) for 1 h at room temperature • Sample size: Duplicates (n=2) • Bioanalytical method: LC-MS/MS

[2] = tested on: C57BL/6 Diet Induced Obese (DIO) mice; assay: Oral (P.O.) administration study in DIO mice: in vivo activity, body weights; set-up: species or system mouse; conditions: for change in vivo at 2 mg/kg: Mus musculus, po, read-out: Body weight, %-Diff; for Individual Body Weight, PRED 11 / Individual Body Weight, PRED 12 / Individual Body Weight, PRED 13 / Individual Body Weight, PRED 14: individual male DIO mouse of the 2 mg/kg group; for Individual Body Weight, PRED 11: pre-dose phase day 11 (baseline); for Individual Body Weight, PRED 12: pre-dose phase day 12 (baseline); for Individual Body Weight, PRED 13: pre-dose phase day 13 (baseline); for Individual Body Weight, PRED 14: pre-dose phase day 14 (baseline); for Individual Body Weight, DSNG 1 / Individual Body Weight, DSNG 2: individual male DIO mouse; for Individual Body Weight, DSNG 1: dosing phase day 1; for Individual Body Weight, DSNG 2: dosing phase day 2
Description: The purpose of this study was to assess test articles in the Diet Induced Obese (DIO) mouse.
Male C57BL/6 Diet Induced Obese (DIO) mice were received from Taconic. Animals were acclimated to housing conditions for at least 1 week prior to vehicle acclimation dosing. Animals were acclimated to oral gavage dosing with vehicle once daily for Days 11 through 14 of the predose phase.
At initiation of dosing, animals were 21 to 22 weeks old, and their body weights ranged from 29.8 to 40.1 g.
Dose formulations were administered by oral gavage once daily for 10 days at a dose volume of 2 mL/kg. Doses were based on the most recently recorded scheduled body weight.
Body weights were recorded daily on Days 11 through 14 of the predose phase. Body weights were collected for all animals daily during the dosing phase prior to dosing.
Descriptive statistics (n, mean, standard error of the mean, standard deviation) were completed. Additionally, one-way analysis of variance followed by Dunnett's post-hoc test were performed on body weight (cumulative body weight change), glucose (glucose percent change), and food consumption (cumulative food consumption). Area under the curve (for body weight, cumulative body weight change, daily body weight change, and food consumption) was computed for treatment groups. An appropriate comparison test, such as one-way analysis of variance and Dunnett's, was performed on the group means for the area under the curve computations. Any additional statistical analysis and interpretation of the results were the responsibility of the sponsor.

[3] = tested on: C57BL/6 Diet Induced Obese (DIO) mice; assay: Oral (P.O.) administration study in DIO mice: animal fate (mortality) and clinical observations; conditions: 2 mg/kg
Description: Male C57BL/6 DIO mice were assigned to 12 groups, and doses of 2 mg/kg Celastrol (ERX1000-4), ERX1006, ERX1007, ERX1037, ERX1060, ERX1077, ERX1107, ERX1149, ERX1168, ERX1177, and Pristimerin were administered to Groups 2 through 12, respectively. Animals were dosed via oral gavage once daily for 10 days at a volume of 2 mL/kg. The vehicle control article was 1% methyl cellulose (400 cps) in citric acid and phosphate buffer.
Parameters assessed included mortality, clinical observations, body weights and food consumption and blood glucose evaluations.
All animals were anesthetized via carbon dioxide, sacrificed, and discarded without further evaluation on Day 11.

## CC(=O)OC1=C(C)C2=CC=C3[C@@](C)(CC[C@@]4(C)[C@@H]5C[C@](C)(C(=O)O)CC[C@]5(C)CC[C@]34C)C2=CC1=O [ERX1007]
[1]; Solubility (μM)
  solubility: 48.8 µM (≈ 24 µg/mL)
[1]; Solubility (μM) Mean
  solubility: 48.8 µM (≈ 24 µg/mL)
[2]; 2 mg/kg oral gavage once daily, dosing phase Day 1
  Body weight %-Diff: 1%
[2]; 2 mg/kg oral gavage once daily, dosing phase Day 1, N 5
  Body weight, Mean: 34.5 g
[2]; 2 mg/kg oral gavage once daily, dosing phase Day 2
  Body weight %-Diff: −1%
[2]; 2 mg/kg oral gavage once daily, dosing phase Day 2, N 5
  Body weight, Mean: 34.1 g
[2]; 2 mg/kg oral gavage once daily, dosing phase Day 3
  Body weight %-Diff: −2%
[2]; 2 mg/kg oral gavage once daily, dosing phase Day 3, N 5
  Body weight, Mean: 33.3 g
[2]; 2 mg/kg oral gavage once daily, dosing phase Day 4
  Body weight %-Diff: 0%
[2]; 2 mg/kg oral gavage once daily, dosing phase Day 4, N 5
  Body weight, Mean: 33.3 g
[2]; 2 mg/kg oral gavage once daily, dosing phase Day 5
  Body weight %-Diff: −2%
[2]; 2 mg/kg oral gavage once daily, dosing phase Day 5, N 5
  Body weight, Mean: 33.1 g
[2]; 2 mg/kg oral gavage once daily, dosing phase Day 6
  Body weight %-Diff: −3%
[2]; 2 mg/kg oral gavage once daily, dosing phase Day 6, N 5
  Body weight, Mean: 32.4 g
[2]; Day 7, DSNG phase, 2 mg/kg, male, N=5
  Body weight, Mean: 32.4 g
[2]; Day 8, DSNG phase, 2 mg/kg, male, N=5
  Body weight, Mean: 32.7 g
[2]; Day 9, DSNG phase, 2 mg/kg, male, N=5
  Body weight, Mean: 32.3 g
[2]; Day 10, DSNG phase, 2 mg/kg, male, N=5
  Body weight, Mean: 32.1 g
[2]; Day 11, DSNG phase, 2 mg/kg, male, N=5
  Body weight, Mean: 32.3 g
[2]; 168 h, Day 7, DSNG phase, 2 mg/kg, male, difference of group mean
  change in vivo at 2 mg/kg: -3%
[2]; 192 h, Day 8, DSNG phase, 2 mg/kg, male, difference of group mean
  change in vivo at 2 mg/kg: -3%
[2]; 216 h, Day 9, DSNG phase, 2 mg/kg, male, difference of group mean
  change in vivo at 2 mg/kg: -3%
[2]; 240 h, Day 10, DSNG phase, 2 mg/kg, male, difference of group mean
  change in vivo at 2 mg/kg: -4%
[2]; 264 h, Day 11, DSNG phase, 2 mg/kg, male, difference of group mean
  change in vivo at 2 mg/kg: -5%
[2]
  Individual Body Weight, PRED 11: 36.8 g and 39.8 g and 35.7 g and 32.5 g and 37.6 g
  Individual Body Weight, PRED 12: 35.2 g and 38.9 g and 35.7 g and 31.7 g and 36.9 g
  Individual Body Weight, PRED 13: 34.1 g and 38.7 g and 35.3 g and 32.3 g and 36.5 g
  Individual Body Weight, PRED 14: 34.2 g and 38.6 g and 35.2 g and 32.7 g and 37.3 g
[2]; 2 mg/kg, 2 mg/kg
  Individual Body Weight, DSNG 1: 33.8 g and 36.3 g and 34.7 g and 31.4 g and 36.2 g
  Individual Body Weight, DSNG 2: 33.2 g and 36.4 g and 34.2 g and 30.3 g and 36.2 g
[3]; individual male animals, phase of fate Dosing, phase week 2, phase day 11
  Individual Animal Fate: Fate Status: Scheduled Sacrifice

## CC1=C(O)C(=O)C=C2C1=CC=C1[C@@]2(C)CC[C@@]2(C)[C@@H]3C[C@](C)(CN(C)C)CC[C@]3(C)CC[C@]12C [ERX1060]
[1]; Solubility (μM) Mean, Table 6-B, test concentration 100 μM (1% of DMSO), shaken (1000 rpm) 1 h at room temperature, n = 2
  solubility at 1 h: 1.11 µM (≈ 0.515 µg/mL)
[1]; Solubility (μM), Table 6-D
  solubility at 1 h: 1.11 µM (≈ 0.515 µg/mL)
[2]; DIO mice, male, 2 mg/kg, phase DSNG, Day 7
  Body weight, Mean: 33.8 g
[2]; DIO mice, male, 2 mg/kg, phase DSNG, Day 8
  Body weight, Mean: 33.3 g
[2]; DIO mice, male, 2 mg/kg, phase DSNG, Day 9
  Body weight, Mean: 33.1 g
[2]; DIO mice, male, 2 mg/kg, phase DSNG, Day 10
  Body weight, Mean: 33.5 g
[2]; DIO mice, male, 2 mg/kg, phase DSNG, Day 11
  Body weight, Mean: 34.4 g
[2]; Day 1, DSNG phase, 2 mg/kg, male, N=5
  Body weight, Mean: 34.6 g
[2]; Day 2, DSNG phase, 2 mg/kg, male, N=5
  Body weight, Mean: 34.1 g
[2]; Day 3, DSNG phase, 2 mg/kg, male, N=5
  Body weight, Mean: 34.4 g
[2]; Day 4, DSNG phase, 2 mg/kg, male, N=5
  Body weight, Mean: 34.1 g
[2]; Day 5, DSNG phase, 2 mg/kg, male, N=5
  Body weight, Mean: 34.2 g
[2]; Day 6, DSNG phase, 2 mg/kg, male, N=5
  Body weight, Mean: 34.4 g
[2]; 24 h, Day 1, DSNG phase, 2 mg/kg, male, difference of group mean
  change in vivo at 2 mg/kg: 1%
[2]; 48 h, Day 2, DSNG phase, 2 mg/kg, male, difference of group mean
  change in vivo at 2 mg/kg: -1%
[2]; 72 h, Day 3, DSNG phase, 2 mg/kg, male, difference of group mean
  change in vivo at 2 mg/kg: 1%
[2]; 96 h, Day 4, DSNG phase, 2 mg/kg, male, difference of group mean
  change in vivo at 2 mg/kg: 2%
[2]; 120 h, Day 5, DSNG phase, 2 mg/kg, male, difference of group mean
  change in vivo at 2 mg/kg: 1%
[2]; 144 h, Day 6, DSNG phase, 2 mg/kg, male, difference of group mean
  change in vivo at 2 mg/kg: 3%
[2]; 168 h, DIO mice, male, 2 mg/kg, phase DSNG, Day 7, difference of group mean from vehicle group 1
  change in vivo at 2 mg/kg: 1%
[2]; 192 h, DIO mice, male, 2 mg/kg, phase DSNG, Day 8, difference of group mean from vehicle group 1
  change in vivo at 2 mg/kg: -1%
[2]; 216 h, DIO mice, male, 2 mg/kg, phase DSNG, Day 9, difference of group mean from vehicle group 1
  change in vivo at 2 mg/kg: 0%
[2]; 240 h, DIO mice, male, 2 mg/kg, phase DSNG, Day 10, difference of group mean from vehicle group 1
  change in vivo at 2 mg/kg: 0%
[2]; 264 h, DIO mice, male, 2 mg/kg, phase DSNG, Day 11, difference of group mean from vehicle group 1
  change in vivo at 2 mg/kg: 1%
[2]
  Individual Body Weight, PRED 11: 36.2 g and 38.2 g and 35.9 g and 40.9 g and 38.9 g
  Individual Body Weight, PRED 12: 34.5 g and 36.6 g and 34.9 g and 41.2 g and 39.0 g
  Individual Body Weight, PRED 13: 33.2 g and 34.7 g and 33.5 g and 39.8 g and 37.1 g
  Individual Body Weight, PRED 14: 33.7 g and 35.1 g and 32.7 g and 40.6 g and 37.4 g
[2]; 2 mg/kg, 2 mg/kg
  Individual Body Weight, DSNG 1: 32.9 g and 34.3 g and 31.3 g and 38.7 g and 35.6 g
  Individual Body Weight, DSNG 2: 33.2 g and 34.1 g and 29.8 g and 38.2 g and 35.2 g
[3]; mouse, in vivo
  Individual Animal Fate: Fate Status: Scheduled Sacrifice
